Measurements as given in ChEMBL document CHEMBL3600310 (J Med Chem, 2015).
Activity calls are given as the source filed them. No cut-off for these calls is given here.

Assays:
[1] = target: T1, DNA topoisomerase 1 (Homo sapiens) (UniProt P11387); experiment: Inhibition of Top1 (unknown origin)-mediated pBR322 DNA cleavage using ethidium bromide staining at 100 uM after 15 mins by electrophoresis analysis
T1 sequence (whole entry): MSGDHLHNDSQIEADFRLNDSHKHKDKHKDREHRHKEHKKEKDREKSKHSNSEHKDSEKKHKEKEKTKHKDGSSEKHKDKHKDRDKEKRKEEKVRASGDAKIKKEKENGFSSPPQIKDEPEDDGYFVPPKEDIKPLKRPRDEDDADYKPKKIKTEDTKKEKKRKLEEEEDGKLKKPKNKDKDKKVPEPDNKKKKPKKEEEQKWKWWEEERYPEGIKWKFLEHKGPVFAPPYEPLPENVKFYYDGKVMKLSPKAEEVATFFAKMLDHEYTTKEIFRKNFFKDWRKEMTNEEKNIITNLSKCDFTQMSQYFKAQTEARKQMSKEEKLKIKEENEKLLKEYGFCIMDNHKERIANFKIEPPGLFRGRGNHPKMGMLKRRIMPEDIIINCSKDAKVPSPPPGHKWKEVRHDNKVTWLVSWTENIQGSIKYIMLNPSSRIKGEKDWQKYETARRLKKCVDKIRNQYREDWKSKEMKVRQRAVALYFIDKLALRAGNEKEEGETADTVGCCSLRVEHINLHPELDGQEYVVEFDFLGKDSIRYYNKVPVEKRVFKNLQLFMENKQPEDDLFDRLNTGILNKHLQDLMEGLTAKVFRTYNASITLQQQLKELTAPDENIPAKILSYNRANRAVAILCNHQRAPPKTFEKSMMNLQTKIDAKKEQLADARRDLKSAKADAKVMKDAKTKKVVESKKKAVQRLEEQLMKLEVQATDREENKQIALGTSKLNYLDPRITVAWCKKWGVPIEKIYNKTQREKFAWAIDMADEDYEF

[2] = target: T1, DNA topoisomerase 1 (Homo sapiens); experiment: Inhibition of Top1 (unknown origin)-mediated pBR322 DNA cleavage using ethidium bromide staining at 50 uM after 15 mins by electrophoresis analysis
[3] = tested on: A549; experiment: Cytotoxicity against human A549 cells after 72 hrs by MTT assay; type: functional, cell-based; details: A549, 72 h
[4] = tested on: HCT-116; experiment: Cytotoxicity against human HCT116 cells after 72 hrs by MTT assay; type: functional, cell-based; details: HCT-116, 72 h
[5] = tested on: MDA-MB-435; experiment: Cytotoxicity against human MDA-MB-435 cells after 72 hrs by MTT assay; type: functional, cell-based; details: MDA-MB-435, 72 h

| Structure (SMILES) | inhibition [1] | inhibition [2] | IC50 [3] | IC50 [4] | IC50 [5] |
| --- | --- | --- | --- | --- | --- |
| O=C1c2cc(F)ccc2SC2c3[nH]c4ccc(O)cc4c3CCN12 (configuration not stated) | Active | Active | 1.2 µM | < 0.003 µM | < 0.003 µM |
| CCCN(CCC)c1ccc2c(c1)C(=O)N1CCc3c([nH]c4ccccc34)C1O2 (configuration not stated) | – | – | > 200 µM | 2.3 µM | > 200 µM |
| O=C1c2ccc(Cl)cc2OC2c3[nH]c4ccccc4c3CCN12 (configuration not stated) | – | – | 58.6 µM | 40.6 µM | 34.2 µM |
| CN1c2ccccc2C(=O)N2CCCc3c(oc4ccc(O)cc34)C21 (configuration not stated) | – | – | > 200 µM | > 200 µM | > 200 µM |
| CN1c2ccn(C)c2C(=O)N2CCc3c([nH]c4ccc(O)cc34)C21 (configuration not stated) | – | – | 5 µM | 15.4 µM | 11.7 µM |
| CC(C)CNc1ccc2c(c1)C(=O)N1CCc3c([nH]c4ccccc34)C1O2 (configuration not stated) | – | – | > 200 µM | 5.3 µM | > 200 µM |
| Cc1ccc2c(c1)OC1c3[nH]c4ccccc4c3CCN1C2=S (configuration not stated) | – | – | 65.2 µM | 44.4 µM | 60.3 µM |
| COc1ccc2[nH]c3c(c2c1)CCN1C(=O)c2cc([N+](=O)[O-])ccc2OC31 (configuration not stated) | – | – | > 200 µM | > 200 µM | > 200 µM |
| CN1c2ccccc2C(=O)N2CCc3c([nH]c4ccccc34)[C@@H]21 [EVODIAMINE] | – | – | > 200 µM | > 200 µM | 22.1 µM |
| Cc1cccc2c1C(=S)N1CCc3c([nH]c4ccccc34)C1O2 (configuration not stated) | – | – | 11 µM | 3.8 µM | 4.5 µM |
| O=C1c2cc(Cl)cc(Cl)c2OC2c3[nH]c4ccccc4c3CCN12 (configuration not stated) | – | – | 1.8 µM | 6.7 µM | 14.2 µM |
| Cc1ccc2c(c1)OC1c3[nH]c4ccccc4c3CCN1C2=O (configuration not stated) | – | – | 62.5 µM | 25.5 µM | 97.2 µM |
| COc1ccc2c(c1)C(=O)N1CCc3c([nH]c4ccc(OC)cc34)C1S2 (configuration not stated) | Active | Active | 11.3 µM | 20 µM | 122 µM |
| O=C1c2ccc(Cl)cc2OC2c3[nH]c4ccc(O)cc4c3CCN12 (configuration not stated) | – | – | 10.6 µM | 18.7 µM | 7.1 µM |
| COc1ccc2[nH]c3c(c2c1)CCN1C(=O)c2cc(F)ccc2OC31 (configuration not stated) | – | – | 13.1 µM | 25.1 µM | 36.4 µM |
| COc1ccc2[nH]c3c(c2c1)CCN1C(=O)c2cc4ccccc4cc2OC31 (configuration not stated) | – | – | > 200 µM | 58 µM | 34.8 µM |
| CN1c2ccsc2C(=O)N2CCc3c([nH]c4ccccc34)C21 (configuration not stated) | – | – | 111 µM | 192 µM | > 200 µM |
| O=C1c2cc(F)ccc2SC2c3[nH]c4ccccc4c3CCN12 (configuration not stated) | Active | Active | > 200 µM | > 200 µM | > 200 µM |
| COc1ccc2[nH]c3c(c2c1)CCN1C(=O)c2cc(Br)ccc2OC31 (configuration not stated) | – | – | 2.6 µM | 5.4 µM | 7.1 µM |
| COc1ccc2c(c1)C(=O)N1CCc3c([nH]c4ccccc34)C1O2 (configuration not stated) | – | – | 14.8 µM | 25.6 µM | > 200 µM |
| CCCNc1ccc2c(c1)C(=O)N1CCc3c([nH]c4ccccc34)C1O2 (configuration not stated) | – | – | 173 µM | 16.7 µM | > 200 µM |
| CCc1c2c(nc3ccc(OC(=O)N4CCC(N5CCCCC5)CC4)cc13)-c1cc3c(c(=O)n1C2)COC(=O)[C@]3(O)CC [IRINOTECAN] | – | – | 20.1 µM | 18.6 µM | 6.3 µM |
| O=C1c2cc(O)ccc2OC2c3[nH]c4ccccc4c3CCN12 (configuration not stated) | – | – | 16.2 µM | 1.9 µM | 11.5 µM |
| COc1ccc2[nH]c3c(c2c1)CCN1C(=O)c2ccsc2N(C)C31 (configuration not stated) | – | – | 26.9 µM | 14.1 µM | 36.2 µM |
| COc1ccc2[nH]c3c(c2c1)CCN1C(=O)c2ccc(C(F)(F)F)cc2OC31 (configuration not stated) | – | – | 50.5 µM | 31.7 µM | 26.2 µM |
| CN1c2ccsc2C(=O)N2CCc3c([nH]c4ccc(O)cc34)C21 (configuration not stated) | – | – | 15.8 µM | 23.6 µM | > 200 µM |
| O=C1c2cc(Cl)cc(Cl)c2OC2c3[nH]c4ccc(O)cc4c3CCN12 (configuration not stated) | – | – | 8.6 µM | 7 µM | 0.3 µM |
